Where “and” joins values, the source holds several entries; their conditions need not be identical. Equal entries are not always repeated. Entries after “also recorded” stand apart in the source; their conditions may differ.
Key:
[1] = system: cancer cell lines (HCT116, NCI-H460, SiHa); experiment: In vitro anticancer activity, statements over all cell lines tested; conditions: 72 h compound exposure
Protocol: (§1) HCT116 (colon cancer cells) and NCI-H460 (large cell lung carcinoma) cells were supplied by ATCC, while SiHa cells (cervical cancer) were supplied by Dr. David Cowan, Ontario Cancer Institute, Canada. Cells were maintained in αMEM (Life Technologies) with 5% FCS (fetal calf serum from Moregate Biotech) at 37° C. in a humidified incubator with 5% CO2. Cells were seeded at the appropriate density and allowed to settle for 24 hours, before the compounds (in 0.5% DMSO at the highest concentration) were added at 3-fold serial dilutions. After 72 h compound exposure, the cells were fixed with 10% TCA (trichloroacetic acid from Merck Millipore) for 1 h at 4° C., then washed before addition of 50 μl of 0.4% sulforhodamine B solution (Sigma Aldrich) for 30 min at room temperature in the dark. After washing with 1% acetic acid, the aminoxanthene dye was solubilised with 100 μl/well unbuffered Tris base (10 mM; Serva) on an orbital shaker for at least 30 min in the dark. The optical density was measured on a BioTek EL808 microplate reader at an absorbance of 490 and 450 nm (reference wavelength) and was used to determine the percentage of cell-growth inhibition. IC50 values were calculated with SigmaPlot12.5 using a three-parameter logistic sigmoidal dose-response curve between the calculated growth inhibition and the compound concentration.

[2] = system: HCT116 (colon cancer cells); experiment: In vitro anticancer activity, sulforhodamine B assay; format: cell-based; conditions: HCT116, 72 h compound exposure, mean of 3 independent experiments
Protocol: as §1

[3] = system: NCI-H460 (large cell lung carcinoma) cells; experiment: as above; format: cell-based; conditions: NCI-H460, 72 h compound exposure, mean of 3 independent experiments
Protocol: as §1

[4] = system: SiHa cells (cervical cancer); experiment: as above; format: cell-based; conditions: 72 h compound exposure, mean of 3 independent experiments
Protocol: as §1

SMILES | cytotoxicity to cancer cell lines [1] | Solubility in water (Solubility in water) | IC50 [2] | IC50 [3] | IC50 [4] | solubility (Solubility in water; water) | IC50 ([2]; Homo sapiens, HCT-116) | IC50 ([3]; Homo sapiens) | IC50 ([4]; Homo sapiens)
O=C(Nc1cc[n+](Cc2ccccc2)cc1)c1ccccn1.[C-]#[O+].[C-]#[O+].[C-]#[O+].[Cl][Ru-]([Cl])[Cl] [Compound 1, [HL][Ru(CO)3Cl3]] | most active compound in all cancer cell lines tested; also recorded: moderately cytotoxic | 1.45 mM | 24 µM | 73 µM | 26 µM |  |  |  | 
CC[N+](CC)(CC)CC.[C-]#[O+].[C-]#[O+].[C-]#[O+].[Cl-].[Cl-].[Cl-].[Ru+2] [Compound 2, [Et4N][Ru(CO)3Cl3]] | non-cytotoxic in the investigated concentration range; also recorded: not active against any of the cancer cell lines | 6.78 mM | > 1600 µM | > 1600 µM | > 1600 µM |  |  |  | 
Cl.O=C(Nc1cc[n+](Cc2ccccc2)cc1)c1ccccn1 [[HL]Cl, 1-Benzyl-4-(picolinamido)pyridinium chloride] |  |  |  |  |  | 12.3 mM | 20 µM | 54 µM | 30 µM
O=C(N=c1ccn(Cc2ccccc2)cc1)c1ccccn1.[C-]#[O+].[C-]#[O+].[C-]#[O+].[C-]#[O+].[C-]#[O+].[C-]#[O+].[Cl][Ru+].[Cl][Ru-]([Cl])[Cl] [pH-CORM-1, [Ru(CO)3Cl(L)][Ru(CO)3Cl3]] | moderately cytotoxic | 1.56 mM | ≤ 119 µM and 119 µM | 164 µM | 148 µM |  |  |  | 
